Assays:
[1] = room temperature; colder solutions may lead to precipitation; cited from earlier work
[2] = Solubility experiments: concentrated aqueous solutions stored and checked for crystallization or precipitation; assay type: physicochemical; settings: for sign of crystallization or precipitation on storage: aqueous solution, 90 days at 20° C.; for solids content of the concentrated aqueous solution that stayed free of crystallization or precipitation: concentrated by evaporation of water at 70° C., cooled to ambient temperature, stable 90 days at 20° C.
Protocol: In each case, the solubility refers to MGDA without hydrate water.
It was allowed to cool down to ambient temperature.
The aqueous solution of MGDA-K2.35Na0.65 obtained according to I.4 was concentrated by evaporation of a part of the water at 70° C. until the solids content was 65% by weight. It was allowed to cool down to ambient temperature.

Compound	concentration of aqueous solution that can be made and stored [1]	sign of crystallization or precipitation on storage ([2]; solids content 61.1% by weight)	solids content of the concentrated aqueous solution that stayed free of crystallization or precipitation [2] [% by weight]	sign of crystallization or precipitation on storage ([2]; solids content 65% by weight)	sign of crystallization or precipitation on storage ([2]; solids content 64.5% by weight)
CC(C(=O)[O-])N(CC(=O)[O-])CC(=O)[O-].[Na+].[Na+].[Na+] (racemic) [racemic MGDA trisodium salt]	about 40 % by weight	–	–	–	–
MGDA-K2.35Na0.65 [MGDA-K2.35Na0.65 obtained according to I.3]	–	did not show any sign of crystallization or precipitation	61.1	–	–
MGDA-K2.35Na0.65 [MGDA-K2.35Na0.65 obtained according to I.4]	–	–	65	did not show any sign of crystallization or precipitation	–
MGDA-K2.35Na0.65 [MGDA-K2.35Na0.65 obtained according to I.2]	–	–	64.5	–	did not show any sign of crystallization or precipitation

From patent US9873659B2, “Solutions of trialkali metal salts of MGDA with an excess of L-enantiomer, their manufacture and use” (BASF SE, priority 2014, dated 2018)
